In one assay the test system is T1, Escherichia coli ec309.
T1 construct: ec309
As to the kind of experiment: microbe, parasite or virus in culture. Details: species or system bacteria; CLSI broth microdilution MIC, no visible growth.

The subject of assay [1] is T2, Escherichia coli ATCC 35218.
T2 construct: ATCC 35218
As to the kind of experiment: microbe, parasite or virus in culture. Also noted: species or system bacteria; CLSI broth microdilution MIC, no visible growth.

The subject of assay [2] is T3, Escherichia coli 95882 CW-2011.
T3 construct: 95882 CW-2011
The experiment in a line: microbe, parasite or virus in culture. Details: species or system bacteria; CLSI broth microdilution MIC, no visible growth.

Another assay concerns T4, Escherichia coli ec302.
T4 construct: ec302
As to the kind of experiment: microbe, parasite or virus in culture. Also noted: species or system bacteria; CLSI broth microdilution MIC, no visible growth.

Another assay has as its system T5, Escherichia coli ec310.
T5 construct: ec310
As to the kind of experiment: microbe, parasite or virus in culture. Details: species or system bacteria; CLSI broth microdilution MIC, no visible growth.

The test system of assay [3] is T6, Escherichia coli 70122 CW-2007.
T6 construct: 70122 CW-2007
The experiment in a line: microbe, parasite or virus in culture. Details: species or system bacteria; CLSI broth microdilution MIC, no visible growth. To be noted: 70122CW2007, read-out: MEM MIC.

Assay [4] deals with T7, Escherichia coli ATCC BAA2471.
T7 construct: ATCC BAA-2471
The experiment in a line: microbe, parasite or virus in culture. Also noted: species or system bacteria; CLSI broth microdilution MIC, no visible growth.

The test system of the next assay is T8, Escherichia coli ec305.
T8 construct: ec305
The experiment in a line: microbe, parasite or virus in culture. Details: species or system bacteria; CLSI broth microdilution MIC, no visible growth.

The test system of another assay is T9, Escherichia coli ec308.
T9 construct: ec308
The experiment in a line: microbe, parasite or virus in culture. Also noted: species or system bacteria; CLSI broth microdilution MIC, no visible growth.

The test system of assay [5] is T10, E. coli ATCC 25922.
T10 construct: ATCC 25922
As to the kind of experiment: microbe, parasite or virus in culture. Also noted: species or system bacteria; CLSI broth microdilution MIC, no visible growth. Conditions: Escherichia coli.

A further assay concerns T11, E. coli MC4100 acrAB.
T11 construct: MC4100 acrAB efflux-deficient
As to the kind of experiment: microbe, parasite or virus in culture. Conditions: Escherichia coli, MC4100ACRAB, read-out: MIC.

In a further assay the test system is S. aureus ATCC 29740hemB. The experiment in a line: microbe, parasite or virus in culture. Conditions: Staphylococcus aureus, ATCC29740HEMB, read-out: MIC.
The test system of assay [6] is T12, S. aureus ATCC 29740 (Newbould).
T12 construct: ATCC 29740 (Newbould)
The experiment in a line: microbe, parasite or virus in culture. Also noted: species or system bacteria; CLSI broth microdilution MIC, no visible growth. Conditions: Staphylococcus aureus.

Another assay deals with T13, E. coli ATP synthase (Escherichia coli, UniProt P68699).
T13 construct: gene atpE
The experiment in a line: ATP production by membrane vesicles, luciferase luminescence. It is filed as biochemical. Conditions: […] NADH, 1 mM ADP, 10 mM potassium phosphate; 30 min preincubation, 60 min reaction. From the text: ATP production by membrane vesicles, luciferase luminescence on E. coli ATP synthase

The subject of the next assay is T14, E. coli MC4100 lptD4213.
T14 construct: MC4100 lptD4213 membrane-compromised
As to the kind of experiment: microbe, parasite or virus in culture. Conditions: Escherichia coli, MC4100LPTD4213, read-out: MIC.

The next assay deals with T15, E. coli MC4100 WT.
T15 construct: MC4100 (ATCC 35695)
As to the kind of experiment: microbe, parasite or virus in culture. Also noted: species or system bacteria; CLSI broth microdilution MIC, no visible growth. To be noted: Escherichia coli, MC4100WT.

Another assay concerns the target T16, S. aureus ATP synthase (Staphylococcus aureus, UniProt Q99SF0).
T16 construct: gene atpE
The experiment in a line: ATP production by membrane vesicles, luciferase luminescence. It counts as biochemical. To be noted: […] NADH, 1 mM ADP, 10 mM potassium phosphate; 30 min preincubation, 60 min reaction. The source says:
ATP production by membrane vesicles, luciferase luminescence on S. aureus ATP synthase

In assay [7] the test system is T10, E. coli ATCC 25922. As to the kind of experiment: microbe, parasite or virus in culture. Details: species or system bacteria; CLSI broth microdilution MIC, no visible growth. Conditions: Escherichia coli. This is another data set of the same source.

The IC50 is the concentration that inhibits the measured activity by half. Lower therefore signals greater potency.

Converted amounts (≈) assume the structure as drawn. Where two headings read alike, the source gives them in different places. Bounds are passed on as bounds.

For the molecule `C[C@@H](O)[C@H]1C(=O)N2C(C(=O)O)=C(S[C@@H]3CN[C@H](C(=O)N(C)C)C3)[C@H](C)[C@H]12` [MEM, meropenem], the MIC with Escherichia coli ec309 (EC309, read-out: MEM MIC) came to 0.06 µg/mL (≈ 0.156 µM); in assay [1] (ATCC35218, read-out: MEM MIC) it was 0.06 µg/mL (≈ 0.156 µM); in assay [2] (95882CW2011, read-out: MEM MIC) it was 4 µg/mL (≈ 10.4 µM); with Escherichia coli ec302 (EC302, read-out: MEM MIC), 0.06 µg/mL (≈ 0.156 µM); in the assay with Escherichia coli ec310 (EC310, read-out: MEM MIC) it was 0.06 µg/mL (≈ 0.156 µM); in assay [3], 0.06 µg/mL (≈ 0.156 µM). Further, the MIC in assay [4] (ATCCBAA2471, read-out: MEM MIC) is over 32 µg/mL; in the assay with Escherichia coli ec305 (EC305, read-out: MEM MIC), 0.06 µg/mL (≈ 0.156 µM); in the assay with Escherichia coli ec308 (EC308, read-out: MEM MIC) it was 0.06 µg/mL (≈ 0.156 µM); with E. coli ATCC 25922 [5] (ATCC25922, read-out: MEM MIC), 0.06 µg/mL (≈ 0.156 µM).
With `C[C@H]1CC[C@]2(NC1)O[C@H]1C[C@H]3[C@@H]4CC[C@H]5CC(NC[C@H](N)Cc6c[nH]c7ccccc67)CC[C@]5(C)[C@H]4CC[C@]3(C)[C@H]1[C@@H]2C` (some centres unmarked) [TM-247], the MIC was 4 µg/mL (≈ 6.82 µM) in the assay with E. coli MC4100 acrAB; at most 0.25 µg/mL in the assay with S. aureus ATCC 29740hemB; 2 µg/mL (≈ 3.41 µM) in [6] (ATCC29740, read-out: TM-247 MIC); 2 µg/mL (≈ 3.41 µM) with E. coli MC4100 lptD4213; 16 µg/mL (≈ 27.3 µM) in the assay with E. coli MC4100 WT (read-out: TM-247 MIC); 8 µg/mL (≈ 13.6 µM) in the assay on E. coli ATCC 25922 [7] (ATCC25922, read-out: TM-247 MIC). In addition, the IC50 against E. coli ATP synthase worked out at 2120 ± 320 nM; at S. aureus ATP synthase, 1060 ± 240 nM.
As to `CN(C)[C@@H]1C(O)=C(C(N)=O)C(=O)[C@@]2(O)C(O)=C3C(=O)c4c(O)cccc4[C@@](C)(O)[C@H]3C[C@@H]12` [TET, tetracycline], the MIC with Escherichia coli ec309 (EC309, read-out: TET MIC) was determined as 2 µg/mL (≈ 4.5 µM); in assay [1] (ATCC35218, read-out: TET MIC), 0.25 µg/mL (≈ 0.563 µM); in assay [2] (95882CW2011, read-out: TET MIC), 1 µg/mL (≈ 2.25 µM); in the assay with Escherichia coli ec302 (EC302, read-out: TET MIC), 2 µg/mL (≈ 4.5 µM); with Escherichia coli ec310 (EC310, read-out: TET MIC), 2 µg/mL (≈ 4.5 µM); in assay [4] (ATCCBAA2471, read-out: TET MIC) it was 128 µg/mL (≈ 288 µM). In addition, the MIC is over 128 µg/mL in the assay with Escherichia coli ec305 (EC305, read-out: TET MIC); 128 µg/mL (≈ 288 µM) in the assay with Escherichia coli ec308 (EC308, read-out: TET MIC); 1 µg/mL (≈ 2.25 µM) in the assay on E. coli ATCC 25922 [5] (ATCC25922, read-out: TET MIC).
For the molecule `C[C@H]1CC[C@]2(NC1)O[C@H]1C[C@H]3[C@@H]4CC[C@H]5C[C@@H](O)CC[C@]5(C)[C@H]4CC[C@]3(C)[C@H]1[C@@H]2C` [TO, tomatidine], the MIC was over 128 µg/mL in the assay on E. coli MC4100 acrAB; at most 0.25 µg/mL in the assay on S. aureus ATCC 29740hemB; over 128 µg/mL in assay [6] (ATCC29740, read-out: TO MIC); over 128 µg/mL in the assay with E. coli MC4100 lptD4213; over 128 µg/mL in the assay with E. coli MC4100 WT (read-out: TO MIC); over 128 µg/mL with E. coli ATCC 25922 [7] (ATCC25922, read-out: TO MIC).
Consider `C[C@H]1CC[C@]2(NC1)O[C@H]1C[C@H]3[C@@H]4CC[C@H]5CC(NC[C@H](N)Cc6ccc(C(F)(F)F)cc6)CC[C@]5(C)[C@H]4CC[C@]3(C)[C@H]1[C@@H]2C` (some centres unmarked) [TM-303], for which the MIC with E. coli MC4100 acrAB was 4 µg/mL (≈ 6.49 µM); in the assay with S. aureus ATCC 29740hemB it was at most 0.25 µg/mL; in [6] (ATCC29740, read-out: TM-303 MIC), 4 µg/mL (≈ 6.49 µM); with E. coli MC4100 lptD4213 it was 2 µg/mL (≈ 3.25 µM); with E. coli MC4100 WT (read-out: TM-303 MIC), 16 µg/mL (≈ 26 µM); in the assay on E. coli ATCC 25922 [7] (ATCC25922, read-out: TM-303 MIC), 8 µg/mL (≈ 13 µM). Also, the IC50 on E. coli ATP synthase came out at 3150 ± 730 nM; against S. aureus ATP synthase it was 1320 ± 220 nM.

Source of the values: publication doi:10.1101/2025.08.21.671483v1, “In vitro and in vivo activity profiles of broad-spectrum bacterial ATP synthase inhibitors” (biorxiv, 2025).
